Entries after “also recorded” stand apart in the source; their conditions may differ.
How the values were obtained:
[1] = tested on: Apc-deficient organoids with mutations of Tp53 and Kras; assay: Organoid viability (counting viable organoids); type: cell-based, mouse; details: 500 U/L asparaginase + 100 μM G6PDi-1, basal medium
Protocol: FIG. 4a Apc-deficient organoids with mutations of Tp53 and Kras were cultured in basal medium and treated with vehicle, asparaginase (500 U/L), G6PDi-1 (100 μM), or combo (500 U/L asparaginase+100 μM G6PDi-1). FIG. 4b Viability of organoids from FIG. 4a was assessed by counting viable organoids. Data is relative to vehicle treatment group.

[2] = target: T1, G6PD (Homo sapiens, UniProt P11413); assay: G6PD activity assay in colorectal cell lines treated with G6PDi; type: cell-based; details: HCT-15 and HT-29 treated with G6PDi at the indicated concentrations
T1 construct: endogenous in cells; host or cells: HCT-15 and HT-29 colorectal cancer cell lines
T1 sequence (P11413 whole entry): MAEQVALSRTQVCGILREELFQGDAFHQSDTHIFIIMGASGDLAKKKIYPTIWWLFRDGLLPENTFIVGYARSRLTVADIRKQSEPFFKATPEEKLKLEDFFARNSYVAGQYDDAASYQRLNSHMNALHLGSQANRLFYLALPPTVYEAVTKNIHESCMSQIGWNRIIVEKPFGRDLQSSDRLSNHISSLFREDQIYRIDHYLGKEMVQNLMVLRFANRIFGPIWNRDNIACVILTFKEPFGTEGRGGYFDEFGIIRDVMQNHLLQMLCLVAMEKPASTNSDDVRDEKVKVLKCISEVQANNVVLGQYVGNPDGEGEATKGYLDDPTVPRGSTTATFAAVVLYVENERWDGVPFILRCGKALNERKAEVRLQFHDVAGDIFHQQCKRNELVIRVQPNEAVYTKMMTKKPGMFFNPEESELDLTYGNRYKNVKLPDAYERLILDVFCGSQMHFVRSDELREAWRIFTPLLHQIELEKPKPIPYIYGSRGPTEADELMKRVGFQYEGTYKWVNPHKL
Protocol: (§1) FIG. 3a colorectal cell lines, HCT-15 and HT-29 were treated with small molecule inhibitor G6PDi at the indicated concentrations and activity of G6PD was assessed. FIGS. 3b-3c Colorectal cancer cell lines, HCT-15 (FIG. 3b) and […] (FIG. 3c) were treated with vehicle or G6PDi-1 (30 μM) and with the indicated doses of asparaginase. Relative viability was assessed by counting viable cells based on trypan blue vital dye staining, with cell counts normalized to those in cells with no-asparaginase controls.

[3] = tested on: colorectal cancer cell lines HCT-15 and HT-29; assay: Relative viability (trypan blue viable cell counts) with G6PDi-1 plus asparaginase; type: cell-based, human; details: G6PDi-1 30 μM with indicated doses of asparaginase
Protocol: as §1

[4] = tested on: NADP/NADPH ratio in HCT-15 cells; assay: NADP/NADPH ratio, NADP/NADPH Assay Kit (colorimetric, OD 450 nm); type: cell-based, human
Protocol: FIG. 8a, HCT-15 cells were transduced with the indicated shRNAs and with the indicated doses of asparaginase, and the ratio of NADP to NADPH was measured using the NADP/NADPH Assay Kit (abcam product #ab65349). Relative NADP/NADPH ratio was assessed by microplate reader based on colorimetric signals (OD 450 nm), with colorimetric signal normalized to those in shLuc cells with no-asparaginase controls. FIG. 8b, the colorectal cancer cell line HCT-15 was treated with vehicle, asparaginase (500 U/L), G6PDi-1 (30 μM) or combination treatment. […] was measured by NADP/NADPH Assay Kit (ab65349) in indicated cells. Relative NADP/NADPH ratio was assessed by microplate reader based on colorimetric signals (OD 450 nm), with colorimetric signal normalized to those in shLuc cells with no-asparaginase controls.

[5] = tested on: ROS levels in HCT-15 cells; assay: Reactive oxygen species levels, Cellular ROS Assay Kit; type: cell-based, human; details: G6PD deficient (shG6PD #1 and #2) HCT-15 cells, indicated doses
Protocol: HCT-15 cells were transduced with negative control shRNA (shLuciferase, shLuc) or with two distinct G6PD-targeting shRNAs (shG6PD #1 and #2), treated with asparaginase at the indicated doses, and reactive oxygen species (ROS) levels were assessed using the Cellular ROS Assay Kit (Abcam, product number ab113851) in shLuc (control). ROS levels were measured by fluorescence microplate reader, and were normalized to those in shLuc-transduced, no-asparaginase controls. […] Results are shown as means±SEM; n=3. ****P<0.0001.

[6] = tested on: HCT-15 colorectal cancer cell line; assay: Relative viability of G6PD knock-out HCT-15 clones treated with asparaginase; type: cell-based, human; details: G6PD knock-out (KO) clones of HCT-15 versus wild-type
Protocol: FIG. 5a, Western blot analysis of G6PD protein expression levels in parental HCT-15 cells (G6PD wild-type) and two distinct G6PD knock-out (KO) clones generated by CRISPR-Cas9 induced gene deletion. FIG. 5b, control (G6PD wild-type) or G6PD knockout (KO) clones of the HCT-15 colorectal cancer cell line were treated with asparaginase at the indicated doses, and relative cell viability was assessed by counting the number of live cells based on trypan blue vital dye staining, with cell counts normalized to those in cells with no-asparaginase controls.

[7] = tested on: HCT-15 colorectal cancer cells; assay: Relative viability of HCT-15 cells with CRISPR interference of RPIA and RPE, treated with asparaginase; type: cell-based, human; details: HCT-15 with dCas9-KRAB and guide RNAs targeting RPIA and RPE promoters
Protocol: HCT-15 colorectal cancer cells were transduced with a so-called CRISPR interference system, consisting of a dCas9-KRAB expression construct and guide RNAs targeting the promoters of RPIA and RPE, to inhibit expression of these enzymes. Cells were then treated with vehicle or asparaginase at the indicated doses. Relative viability was assessed by counting viable cells based on trypan blue vital dye staining, with cell counts normalized to those in cells with no-asparaginase controls.

[8] = tested on: mouse intestinal organoid models of colorectal cancer; assay: Subcutaneous AKP organoid tumors in immunodeficient mice, tumor volume; type: in vivo; details: G6pdx-deficient (shG6pdx) organoid tumors, asparaginase 1,000 U/kg
Text: Left panel, Mouse intestinal organoids with Apc deficiency, Kras activating mutations, and Tp53 loss (so-called AKP organoids) were transduced with two distinct control shRNAs (shGFP and shLuciferase), or two distinct shRNAs targeting G6pdx (the mouse G6PD gene). Knockdown of G6pdx protein expression was confirmed by Western blot analysis.
Organoids were transduced with control (shLuc) and two distinct shG6pdx-targeting shRNAs (see FIG. 10), and injected subcutaneously into immunodeficient mice. After engraftment of tumors (defined as tumors reaching a volume of 150 mm3), mice were treated with vehicle (phosphate-buffered saline, PBS) or asparaginase (1,000 U/kg), and tumor volumes were followed. Asparaginase or PBS were re-dosed at the time points indicated by the black arrows.

[9] = tested on: NADP/NADPH ratio in HCT-15 G6PD knock-out cells; assay: NADP/NADPH ratio by liquid chromatography/mass spectrometry in G6PD knock-out clones; type: cell-based, human; details: HCT-15 G6PD knock-out clones #1 and #2, asparaginase 500 U/L
Protocol: HCT-15 cells that were either G6PD wild-type (WT) parental cells, or G6PD knock-out clones #1 and #2, were treated by vehicle or asparaginase (500 U/L). NADP/NADPH ratio was measured by liquid chromatography/mass spectrometry, and levels are shown normalized to those in HCT-15 cells with no-asparaginase controls.

Substance	asparaginase sensitivity in organoids (viable organoids relative to vehicle) [1]	G6PD activity [2]	sensitivity to asparaginase (relative viability) [3]	relative NADP/NADPH ratio on G6PD inhibition ([4]; HCT-15 cells, G6PDi-1 30 μM)	reactive oxygen species levels on asparaginase treatment [5]	asparaginase sensitivity (relative cell viability) [6]	relative viability on asparaginase treatment [7]	relative NADP/NADPH ratio on asparaginase treatment ([4]; HCT-15 cells depleted of G6PD (shRNA or G6PDi-1 30 μM), asparaginase 500 U/L or indicated doses)	tumor volume / therapeutic activity [8]	NADP/NADPH ratio on asparaginase treatment (LC/MS) [9]
G6PDi-1	induce asparaginase sensitivity	reduce G6PD activity	induce sensitivity to asparaginase	increased						
asparaginase					not further elevated	induces asparaginase sensitivity	None of the differences were statistically significant	further increased the NADP/NADPH ratio; also recorded: further increase of NADP/NADPH ratio	tumor volumes were reduced; also recorded: significant therapeutic activity	further increase of NADP/NADPH ratio

From patent US20240024436A1, “METHOD FOR TREATING CANCER” (CHILDREN'S MEDICAL CENTER CORPORATION, priority 2022, published 2024)
